Measured values: patent US20060217370A1, “Compounds useful for the treatment and prevention of pain and screening methods therefor” (priority 2005, published 2006)

Assays:
Test in all cases: Receptor Selection and Amplification Technology (R-SAT) functional receptor assay
human MrgX1 = target: T1, human MrgX1 (Homo sapiens, UniProt Q96LB2); format: cell-based; conditions: for Human-X1 Eff(%): efficacy relative to Bam22, nr = no response up to 10 micromolar
T1 construct: expressed in transfected cells; host or cells: NIH3T3
T1 sequence (Q96LB2 whole entry): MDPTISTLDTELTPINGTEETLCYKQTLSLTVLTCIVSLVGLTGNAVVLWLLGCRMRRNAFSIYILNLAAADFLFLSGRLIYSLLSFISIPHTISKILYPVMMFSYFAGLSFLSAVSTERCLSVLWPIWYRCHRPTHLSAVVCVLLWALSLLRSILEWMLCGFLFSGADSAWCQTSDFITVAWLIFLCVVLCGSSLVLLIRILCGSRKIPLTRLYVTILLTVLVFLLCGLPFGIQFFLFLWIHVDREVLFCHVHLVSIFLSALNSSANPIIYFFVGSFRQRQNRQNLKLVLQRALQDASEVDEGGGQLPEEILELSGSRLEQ
Method: (§1) The functional receptor assay, Receptor Selection and Amplification Technology (R-SAT), was used to investigate the pharmacological properties of test compounds on MRGX1 or MRGX2 receptors. R-SAT is disclosed in U.S. Pat. Nos. 5,707,798, 5,912,132, and 5,955,281, each of which is incorporated by reference herein in its entirety, including any drawings.
(§2) Briefly, NIH3T3 cells were grown in 96-well tissue culture plates to 70-80% confluence. Cells were transfected for 16-20 h with plasmid DNAs using Polyfect (Qiagen Inc.) and the manufacturer's protocols. R-SATs were generally performed with 4 ng/well of receptor and 20 ng/well of β-galactosidase plasmid DNA. The human MrgX1, simian MrgX1, human MrgX2 and simian MrgX2 receptor genes were amplified by PCR from genomic DNA using oligodeoxynucleotide primers based on SEQ ID NO:1, SEQ ID NO:3, SEQ ID NO:5, SEQ ID NO:7, or SEQ ID NO:9. For large-scale transfections, cells were transfected for 16-20 h, then trypsinized and frozen in DMSO. Frozen cells were later thawed, plated at ˜10,000 cells per well of a 96 half-area well plate that contained test compound. With both methods, cells were then grown in a humidified atmosphere with 5% ambient CO2 for five days. The medium was then removed from the plates and marker gene activity was measured by the addition of the β-galactosidase substrate o-nitrophenyl β-galactopyranoside (ONPG, in PBS with 0.5% NP-40). The resulting colorimetric reaction was measured in a spectrophotometric plate reader (Titertek Inc.) at 420 nm. All data were analyzed using the computer program XLFit (IDBSm). Efficacy is defined as the percent maximal activation compared to activation by a control compound (BAM22 in the case of human or simian MRGX1, STIA or Cortistatin-14 in the case of human or simian MRGX2). pEC50 is the negative of log(EC50), where EC50 is the calculated molar concentration of test compound that produces 50% of maximum activation.
(§3) Efficacy is reported relative to the ligands Bam22 for MrgX1 and STIA for MrgX2.

human MrgX2 = target: T2, human MrgX2 (Homo sapiens, UniProt Q96LB1); format: cell-based; conditions: for Human-X2 Eff(%): efficacy relative to STIA, nr = no response up to 10 micromolar; for EC50: transfected NIH3T3 cells, read-out: Human-X2 pEC50 (converted)
T2 construct: expressed in transfected cells; host or cells: NIH3T3
T2 sequence (Q96LB1 1-330): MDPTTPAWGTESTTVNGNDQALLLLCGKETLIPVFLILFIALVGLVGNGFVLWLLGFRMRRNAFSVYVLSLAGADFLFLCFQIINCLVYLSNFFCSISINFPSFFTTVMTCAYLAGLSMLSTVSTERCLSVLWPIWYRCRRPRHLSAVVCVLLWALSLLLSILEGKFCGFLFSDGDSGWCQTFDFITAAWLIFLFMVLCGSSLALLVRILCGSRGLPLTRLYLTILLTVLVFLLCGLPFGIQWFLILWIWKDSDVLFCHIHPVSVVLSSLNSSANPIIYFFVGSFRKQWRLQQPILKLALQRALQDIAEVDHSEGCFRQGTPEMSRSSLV
Method: as §1, §2, §3

simian MrgX1 = simian MrgX1 (Macaca mulatta, UniProt Q1L4E8, cells depend on it, form not given, species not given); format: cell-based, monkey; conditions: efficacy relative to Bam22, nr = no response up to 10 micromolar
simian MrgX1, sequence (Q1L4E8 1-322, change not shown): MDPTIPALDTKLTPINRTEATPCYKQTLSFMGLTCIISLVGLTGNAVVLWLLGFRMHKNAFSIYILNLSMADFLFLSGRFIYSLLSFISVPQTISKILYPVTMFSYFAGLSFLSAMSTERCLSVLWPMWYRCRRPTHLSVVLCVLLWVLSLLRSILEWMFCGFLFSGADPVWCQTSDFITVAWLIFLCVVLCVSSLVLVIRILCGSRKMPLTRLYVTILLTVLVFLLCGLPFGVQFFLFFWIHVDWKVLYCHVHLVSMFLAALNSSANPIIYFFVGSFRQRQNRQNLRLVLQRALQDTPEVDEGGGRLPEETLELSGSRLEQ
Method: as §1
Briefly, NIH3T3 cells were grown in 96-well tissue culture plates to 70-80% confluence. Cells were transfected for 16-20 h with plasmid DNAs using Polyfect (Qiagen Inc.) and the manufacturer's protocols. R-SATs were generally performed with 4 ng/well of receptor and 20 ng/well of β-galactosidase plasmid DNA. The human MrgX1, simian MrgX1, human MrgX2 and simian MrgX2 receptor genes were amplified by PCR from genomic DNA using oligodeoxynucleotide primers based on SEQ ID NO:1, SEQ ID NO:3, SEQ ID NO:5, SEQ ID NO:7, or SEQ ID NO:9. For large-scale transfections, cells were transfected for 16-20 h, then trypsinized and frozen in DMSO. […] The medium was then removed from the plates and marker gene activity was measured by the addition of the β-galactosidase substrate o-nitrophenyl β-galactopyranoside (ONPG, in PBS with 0.5% NP-40). The resulting colorimetric reaction was measured in a spectrophotometric plate reader (Titertek Inc.) at 420 nm. All data were analyzed using the computer program XLFit (IDBSm). […]

Human-X1 Eff(%) (human MrgX1) | Human-X2 Eff(%) (human MrgX2) | EC50 (human MrgX2) | Monkey-X1 Eff(%) (simian MrgX1) | EC50 (human MrgX1; transfected NIH3T3 cells, read-out: Human-X1 pEC50 (converted)) | SMILES
nr | 174% | 100 nM | nr |  | CC(C)C1C(=O)Nc2ccc(N3CCN(Cc4ccccc4)CC3)cc2-c2nc3cc(C(=O)N(C)C4CCN(C)CC4)ccc3n21 (centres unmarked) [Mrg-606]
124% | 98% | 316 nM |  | 39.8 nM | CC[C@H](C)C1C(=O)Nc2ccc(NCCCN(C)C)cc2-c2nc3cc(C(=O)NCc4cccc(C(F)(F)F)c4)ccc3n21 (some centres unmarked) [Mrg-173]
